One assay concerns SIIN specific T cell. It counts as cell-based.
For another assay, the system named is LK^b cells. The class given is cell-based.

The values below come from US12605439B2 (priority 2017, dated 2026).

“QLE SIINFEKL TEW (QLESIINFEKLTEW; OVA peptide used in the Examples) [Ext SIIN, extended model ovalbumin peptide with three flanking residues at both termini]”: the “activation of T cells compared to free peptide” value with SIIN specific T cell is “equivalent”. In the assay with LK^b cells, the “presentation of CD8 epitope compared to free peptide loading” value is reported as “lower”.
